Reference: US9499550B2 (BRISTOL-MYERS SQUIBB COMPANY, priority 2012, dated 2016)

Tests used:
[1] = tested on: HCV genotype 1b (Con1) replicon in HUH-7 cells; assay: HCV replicon luciferase reporter assay, genotype 1b; type: cell-based; details: Hepatitis C virus, Huh-7, 72 h, HCV genotype 1b replicon luciferase assay, 3 days incubation, range class, read-out: LE_1b (EC50, range)
How it was run: (§1)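 Replicon inhibition for both genotypes was measured as Renilla luciferase signal (EnduRen, 7.5 μM final, 2 h) after 3-day, 37° C exposure of replicon-bearing HUH-7 cells in 4% FCS DMEM, 0.5% DMSO. The 1b construct carries S1179I; the 1a H77 construct carries P1496L and S2204I. Twenty-point, 3-fold dilutions were fitted four-parametrically for EC50, and CC50 was taken from multiplexed Cell Titer-Blue.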

[2] = tested on: HCV genotype 1a (H77 strain) replicon in HUH-7 cells; assay: HCV replicon luciferase reporter assay, genotype 1a; type: cell-based; details: Hepatitis C virus, Huh-7, 72 h, HCV genotype 1a replicon luciferase assay, 3 days incubation, range class, read-out: LE_1a (EC50, range)
How it was run: as §1

| SMILES | EC50 [1] | EC50 [2] |
| --- | --- | --- |
| COc1cnc(O[C@@H]2C[C@H]3C(=O)N[C@]4(C(=O)NS(=O)(=O)C5(CF)CC5)C[C@H]4/C=C\CC[C@@H](C)C[C@@H](C)[C@H](NC(=O)OC4(C(F)(F)F)CCOCC4)C(=O)N3C2)c2ccccc12 [Compound 1048, 4-(trifluoromethyl)tetrahydro-2H-pyran-4-yl((2R,6S,7R,9R,13aS,14aR,16aS,Z)-14a-(((1-(fluoromethyl)cyclopropyl)sulfonyl)carbamoyl)-2-((4-methoxyisoquinolin-1-yl)oxy)-7,9-dimethyl-5,16-dioxo-1,2,3,5,6,7,8,9,10,11,13a,14,14a,15,16,16a-hexadecahydrocyclopropa[e]pyrrolo[1,2-a][1,4]diazacyclopentadecin-6-yl)carbamate] | < 5.46 nM | < 5.46 nM |
| COCC(C)(C)OC(=O)N[C@@H]1C(=O)N2C[C@H](Oc3ncc(OC)c4ccccc34)C[C@H]2C(=O)N[C@]2(C(=O)NS(=O)(=O)C3(CF)CC3)C[C@H]2/C=C\CC[C@H](C)C[C@H]1C [Compound 1049, 1-methoxy-2-methylpropan-2-yl((2R,6S,7R,9S,13aS,14aR,16aS,Z)-14a-(((1-(fluoromethyl)cyclopropyl)sulfonyl)carbamoyl)-2-((4-methoxyisoquinolin-1-yl)oxy)-7,9-dimethyl-5,16-dioxo-1,2,3,5,6,7,8,9,10,11,13a,14,14a,15,16,16a-hexadecahydrocyclopropa[e]pyrrolo[1,2-a][1,4]diazacyclopentadecin-6-yl)carbamate] | 4.82 to 103 nM | 4.82 to 103 nM |
| COCC(C)(C)OC(=O)N[C@@H]1C(=O)N2C[C@H](Oc3ncc(OC)c4ccccc34)C[C@H]2C(=O)N[C@]2(C(=O)NS(=O)(=O)C3(CF)CC3)C[C@H]2/C=C\CC[C@@H](C)C[C@H]1C [Compound 1050, 1-methoxy-2-methylpropan-2-yl((2R,6S,7R,9R,13aS,14aR,16aS,Z)-14a-(((1-(fluoromethyl)cyclopropyl)sulfonyl)carbamoyl)-2-((4-methoxyisoquinolin-1-yl)oxy)-7,9-dimethyl-5,16-dioxo-1,2,3,5,6,7,8,9,10,11,13a,14,14a,15,16,16a-hexadecahydrocyclopropa[e]pyrrolo[1,2-a][1,4]diazacyclopentadecin-6-yl)carbamate] | < 5.46 nM | < 5.46 nM |
| COc1cnc(O[C@@H]2C[C@H]3C(=O)N[C@]4(C(=O)NS(=O)(=O)C5(CF)CC5)C[C@H]4/C=C\CC[C@H](C)C[C@@H](C)[C@H](NC(=O)OC4(C)CCOCC4)C(=O)N3C2)c2ccccc12 [Compound 1051, 4-methyltetrahydro-2H-pyran-4-yl((2R,6S,7R,9S,13aS,14aR,16aS,Z)-14a-(((1-(fluoromethyl)cyclopropyl)sulfonyl)carbamoyl)-2-((4-methoxyisoquinolin-1-yl)oxy)-7,9-dimethyl-5,16-dioxo-1,2,3,5,6,7,8,9,10,11,13a,14,14a,15,16,16a-hexadecahydrocyclopropa[e]pyrrolo[1,2-a][1,4]diazacyclopentadecin-6-yl)carbamate] | 4.82 to 103 nM | 4.82 to 103 nM |
| COc1cnc(O[C@@H]2C[C@H]3C(=O)N[C@]4(C(=O)NS(=O)(=O)C5(CF)CC5)C[C@H]4/C=C\CC[C@@H](C)C[C@@H](C)[C@H](NC(=O)OC4(C)CCOCC4)C(=O)N3C2)c2ccccc12 [Compound 1052, 4-methyltetrahydro-2H-pyran-4-yl((2R,6S,7R,9R,13aS,14aR,16aS,Z)-14a-(((1-(fluoromethyl)cyclopropyl)sulfonyl)carbamoyl)-2-((4-methoxyisoquinolin-1-yl)oxy)-7,9-dimethyl-5,16-dioxo-1,2,3,5,6,7,8,9,10,11,13a,14,14a,15,16,16a-hexadecahydrocyclopropa[e]pyrrolo[1,2-a][1,4]diazacyclopentadecin-6-yl)carbamate] | < 5.46 nM | 4.82 to 103 nM |
| COc1cnc(O[C@@H]2C[C@H]3C(=O)N[C@]4(C(=O)NS(=O)(=O)C5(CF)CC5)C[C@H]4/C=C\CC[C@H](C)C[C@@H](C)[C@H](NC(=O)OC4(C(C)C)COC4)C(=O)N3C2)c2ccccc12 [Compound 1053, 3-isopropyloxetan-3-yl ((2R,6S,7R,9S,13aS,14aR,16aS,Z)-14a-(((1-(fluoromethyl)cyclopropyl)sulfonyl)carbamoyl)-2-((4-methoxyisoquinolin-1-yl)oxy)-7,9-dimethyl-5,16-dioxo-1,2,3,5,6,7,8,9,10,11,13a,14,14a,15,16,16a-hexadecahydrocyclopropa[e]pyrrolo[1,2-a][1,4]diazacyclopentadecin-6-yl)carbamate] | 4.82 to 103 nM | 4.82 to 103 nM |
| COc1cnc(O[C@@H]2C[C@H]3C(=O)N[C@]4(C(=O)NS(=O)(=O)C5(CF)CC5)C[C@H]4/C=C\CC[C@@H](C)C[C@@H](C)[C@H](NC(=O)OC4(C(C)C)COC4)C(=O)N3C2)c2ccccc12 [Compound 1054, 3-isopropyloxetan-3-yl ((2R,6S,7R,9R,13aS,14aR,16aS,Z)-14a-(((1-(fluoromethyl)cyclopropyl)sulfonyl)carbamoyl)-2-((4-methoxyisoquinolin-1-yl)oxy)-7,9-dimethyl-5,16-dioxo-1,2,3,5,6,7,8,9,10,11,13a,14,14a,15,16,16a-hexadecahydrocyclopropa[e]pyrrolo[1,2-a][1,4]diazacyclopentadecin-6-yl)carbamate] | < 5.46 nM | < 5.46 nM |
| COc1cnc(O[C@@H]2C[C@H]3C(=O)N[C@]4(C(=O)NS(=O)(=O)C5(CF)CC5)C[C@H]4/C=C\CC[C@H](C)C[C@@H](C)[C@H](NC(=O)OC4(C)CCCOC4)C(=O)N3C2)c2ccccc12 (stereo partly drawn) [Compound 1055, 3-methyltetrahydro-2H-pyran-3-yl((2R,6S,7R,9S,13aS,14aR,16aS,Z)-14a-(((1-(fluoromethyl)cyclopropyl)sulfonyl)carbamoyl)-2-((4-methoxyisoquinolin-1-yl)oxy)-7,9-dimethyl-5,16-dioxo-1,2,3,5,6,7,8,9,10,11,13a,14,14a,15,16,16a-hexadecahydrocyclopropa[e]pyrrolo[1,2-a][1,4]diazacyclopentadecin-6-yl)carbamate] | < 5.46 nM | < 5.46 nM |
| COc1cnc(O[C@@H]2C[C@H]3C(=O)N[C@]4(C(=O)NS(=O)(=O)C5(CF)CC5)C[C@H]4/C=C\CC[C@@H](C)C[C@@H](C)[C@H](NC(=O)OC4(C)CCCOC4)C(=O)N3C2)c2ccccc12 (stereo partly drawn) [Compound 1056, 3-methyltetrahydro-2H-pyran-3-yl((2R,6S,7R,9R,13aS,14aR,16aS,Z)-14a-(((1-(fluoromethyl)cyclopropyl)sulfonyl)carbamoyl)-2-((4-methoxyisoquinolin-1-yl)oxy)-7,9-dimethyl-5,16-dioxo-1,2,3,5,6,7,8,9,10,11,13a,14,14a,15,16,16a-hexadecahydrocyclopropa[e]pyrrolo[1,2-a][1,4]diazacyclopentadecin-6-yl)carbamate] | < 5.46 nM | < 5.46 nM |
| COc1cnc(O[C@@H]2C[C@H]3C(=O)N[C@]4(C(=O)NS(=O)(=O)C5(CF)CC5)C[C@H]4/C=C\CC[C@H](C)C[C@@H](C)[C@H](NC(=O)OC4(C(F)(F)F)CCCOC4)C(=O)N3C2)c2ccccc12 (stereo partly drawn) [Compound 1057, 3-(trifluoromethyl)tetrahydro-2H-pyran-3-yl((2R,6S,7R,9S,13aS,14aR,16aS,Z)-14a-(((1-(fluoromethyl)cyclopropyl)sulfonyl)carbamoyl)-2-((4-methoxyisoquinolin-1-yl)oxy)-7,9-dimethyl-5,16-dioxo-1,2,3,5,6,7,8,9,10,11,13a,14,14a,15,16,16a-hexadecahydrocyclopropa[e]pyrrolo[1,2-a][1,4]diazacyclopentadecin-6-yl)carbamate] | < 5.46 nM | < 5.46 nM |
| COc1cnc(O[C@@H]2C[C@H]3C(=O)N[C@]4(C(=O)NS(=O)(=O)C5(CF)CC5)C[C@H]4/C=C\CC[C@@H](C)C[C@@H](C)[C@H](NC(=O)OC4(C(F)(F)F)CCCOC4)C(=O)N3C2)c2ccccc12 (stereo partly drawn) [Compound 1058, 3-(trifluoromethyl)tetrahydro-2H-pyran-3-yl((2R,6S,7R,9R,13aS,14aR,16aS,Z)-14a-(((1-(fluoromethyl)cyclopropyl)sulfonyl)carbamoyl)-2-((4-methoxyisoquinolin-1-yl)oxy)-7,9-dimethyl-5,16-dioxo-1,2,3,5,6,7,8,9,10,11,13a,14,14a,15,16,16a-hexadecahydrocyclopropa[e]pyrrolo[1,2-a][1,4]diazacyclopentadecin-6-yl)carbamate] | < 5.46 nM | < 5.46 nM |
| COc1cnc(O[C@@H]2C[C@H]3C(=O)N[C@]4(C(=O)NS(=O)(=O)C5(CF)CC5)C[C@H]4/C=C\CC[C@H](C)C[C@@H](C)[C@H](NC(=O)OC4(C5CC5)COC4)C(=O)N3C2)c2ccccc12 [Compound 1059, 3-cyclopropyloxetan-3-yl((2R,6S,7R,9S,13aS,14aR,16aS,Z)-14a-(((1-(fluoromethyl)cyclopropyl)sulfonyl)carbamoyl)-2-((4-methoxyisoquinolin-1-yl)oxy)-7,9-dimethyl-5,16-dioxo-1,2,3,5,6,7,8,9,10,11,13a,14,14a,15,16,16a-hexadecahydrocyclopropa[e]pyrrolo[1,2-a][1,4]diazacyclopentadecin-6-yl)carbamate] | 4.82 to 103 nM | 4.82 to 103 nM |
| COc1cnc(O[C@@H]2C[C@H]3C(=O)N[C@]4(C(=O)NS(=O)(=O)C5(CF)CC5)C[C@H]4/C=C\CC[C@@H](C)C[C@@H](C)[C@H](NC(=O)OC4(C5CC5)COC4)C(=O)N3C2)c2ccccc12 [Compound 1060, 3-cyclopropyloxetan-3-yl((2R,6S,7R,9R,13aS,14aR,16aS,Z)-14a-(((1-(fluoromethyl)cyclopropyl)sulfonyl)carbamoyl)-2-((4-methoxyisoquinolin-1-yl)oxy)-7,9-dimethyl-5,16-dioxo-1,2,3,5,6,7,8,9,10,11,13a,14,14a,15,16,16a-hexadecahydrocyclopropa[e]pyrrolo[1,2-a][1,4]diazacyclopentadecin-6-yl)carbamate] | < 5.46 nM | < 5.46 nM |
